# According to patent publication US9511050B2, “Methods and compositions for treating cancer” (GEORGETOWN UNIVERSITY, priority 2013, dated 2016):
# Where two headings read alike, the source gives them in different places.
# Key:
# Assay type in all cases: cell-based
# [1] = system: TC32 (human ESFT cell line); assay: IC50 activity in TC32 cells
# Method: (§1) Compounds provided in Table 2 were prepared using methods similar to those described herein. The structures and IC50 activities of particular compounds in PANC1 (a human pancreatic carcinoma), TC32 (human ESFT cell line), and TC71 (human ESFT cell line) cells are summarized in Table 2.
# [2] = system: PANC1 (a human pancreatic carcinoma); assay: IC50 activity in PANC1 cells
# Method: as §1
# [3] = system: TC71 (human ESFT cell line); assay: IC50 activity in TC71 cells
# Method: as §1
# Growth inhibition of ESFT cells was measured for various concentrations of particular compounds.
# [4] = Homo sapiens, TC-32, TC32 cells
# [5] = Homo sapiens, PANC-1, PANC1 cells
# [6] = Homo sapiens, TC-71, TC71 cells
# [7] = PANC1 cells, read-out: IC50 PANC 1
Structure (SMILES),"IC50 [1, 4] [µM]","IC50 [2, 5] [µM]","IC50 [3, 6] [µM]",IC50 ([1]; TC32 cells) [µM],IC50 ([3]; TC71 cells) [µM],potency compared with YK-4-279 ([3]; TC71 cells),"IC50 [2, 7] [µM]"
N#Cc1ccc(C(=O)CC2(O)C(=O)Nc3c(Cl)ccc(Cl)c32)cc1 (centres unmarked) [PT-1-11],10.3,≥ 40,12.3,–,–,–,–
COc1ccccc1C(=O)CC1(O)C(=O)Nc2c(Cl)ccc(Cl)c21 (centres unmarked) [PT-1-12],≥ 40,≥ 40,≥ 40,–,–,–,–
COc1cc(C(=O)CC2(O)C(=O)Nc3c(Cl)ccc(Cl)c32)cc(OC)c1OC (centres unmarked) [PT-1-13],≥ 40,≥ 40,≥ 40,–,–,–,–
CCOc1ccc(C(=O)CC2(O)C(=O)Nc3c(Cl)ccc(Cl)c32)cc1 (centres unmarked) [PT-1-14],2.7,11.1,3.57,–,–,–,–
O=C(CC1(O)C(=O)Nc2c(Cl)ccc(Cl)c21)c1ccc(C(F)(F)F)cc1 (centres unmarked) [PT-1-15],2.95,10.9,6.94,–,–,–,–
O=C(CC1(O)C(=O)Nc2c(Cl)ccc(Cl)c21)c1ccc(OC(F)(F)F)cc1 (centres unmarked) [PT-1-16],≥ 40,≥ 40,≥ 40,–,–,–,–
CN(C)c1ccc(C(=O)CC2(O)C(=O)Nc3c(Cl)ccc(Cl)c32)cc1 (centres unmarked) [PT-1-17],0.259,≥ 40,0.401,0.284,0.294,appeared to be more potent,–
COc1cccc(C(=O)CC2(O)C(=O)Nc3c(Cl)ccc(Cl)c32)c1 (centres unmarked) [PT-1-18],≥ 40,≥ 40,≥ 40,–,–,–,–
COc1ccc(C(=O)CC2(O)C(=O)Nc3c(Cl)ccc(Cl)c32)c(OC)c1 (centres unmarked) [PT-1-19],2.61,22.9,2.82,–,–,–,–
COc1cccc(C(=O)CC2(O)C(=O)Nc3c(Cl)ccc(Cl)c32)c1OC (centres unmarked) [PT-1-20],≥ 40,≥ 40,≥ 40,–,–,–,–
COc1ccc(C(=O)CC2(O)C(=O)Nc3c(Cl)ccc(Cl)c32)cc1OC (centres unmarked) [PT-1-21],≥ 40,≥ 40,≥ 40,–,–,–,–
COc1cc(OC)cc(C(=O)CC2(O)C(=O)Nc3c(Cl)ccc(Cl)c32)c1 (centres unmarked) [PT-1-22],8.99,≥ 40,≥ 40,–,–,–,–
COc1ccc(C(=O)CC2(O)C(=O)Nc3c(Cl)ccc(Cl)c32)c(OC)c1OC (centres unmarked) [PT-1-23],2.7,≥ 40,4.42,–,–,–,–
COc1ccc(C(=O)/C=C2\C(=O)Nc3c(Cl)ccc(Cl)c32)cc1 [PT-1-33],1.03,≥ 40,1.64,–,–,–,–
CN(C)c1ccc(C(=O)/C=C2\C(=O)Nc3c(Cl)ccc(Cl)c32)cc1 [PT-1-38],0.291,–,–,0.383,–,–,–
COc1ccc(C(=O)/C=C2\C(=O)Nc3c(Cl)ccc(Cl)c32)c(OC)c1 [PT-1-39],1.05,5.41,1.81,1.66,2.32,–,6.76
COc1ccc(C(=O)/C=C2\C(=O)Nc3c(Cl)ccc(Cl)c32)c(OC)c1OC [PT-1-41],1.19,2.85,2.14,1.61,1.6,–,5.16
CCOc1ccc(C(=O)/C=C2\C(=O)Nc3c(Cl)ccc(Cl)c32)cc1 [PT-1-43],1.41,11,5.66,–,–,–,–
CN(C)c1ccc(C(=O)/C=C2/C(=O)Nc3c(Cl)ccc(Cl)c32)cc1 [PT-1-53],≥ 40,2.2,4.08,–,–,–,–
COc1ccc(C(=O)/C=C2/C(=O)Nc3c(Cl)ccc(Cl)c32)cc1 [PT-1-54],1.5,–,1.36,2.57,2.2,–,–
O=C(CC1(O)C(=O)Nc2c(Cl)ccc(Cl)c21)c1ccc(Oc2ccccc2)cc1 (centres unmarked) [PT-1-60],≥ 40,≥ 40,≥ 40,–,–,–,–
CSc1ccc(C(=O)CC2(O)C(=O)Nc3c(Cl)ccc(Cl)c32)cc1 (centres unmarked) [PT-1-67],0.982,28.1,0.909,1.2,1.41,–,–
CC(C)Oc1ccc(C(=O)CC2(O)C(=O)Nc3c(Cl)ccc(Cl)c32)cc1 (centres unmarked) [PT-1-69],≥ 40,≥ 40,≥ 40,–,–,–,–

Structure (SMILES),"IC50 [1, 4] [µM]","IC50 [2, 5] [µM]","IC50 [3, 6] [µM]",IC50 ([1]; TC32 cells) [µM],IC50 ([3]; TC71 cells) [µM],potency compared with YK-4-279 ([3]; TC71 cells),"IC50 [2, 7] [µM]"
COc1ccc(C(=O)CC2(O)C(=O)Nc3ccccc32)cc1 (centres unmarked) [PT-1-267],≥ 40,≥ 40,≥ 40,–,–,–,–
COc1ccc(C(=O)CC2(O)C(=O)Nc3cc(Br)cc(Br)c32)cc1 (centres unmarked) [PT-1-271],≥ 40,≥ 40,≥ 40,–,–,–,–
COc1ccc(C(=O)CC2(O)C(=O)Nc3cccc(Cl)c32)cc1 (centres unmarked) [PT-1-275],≥ 40,≥ 40,≥ 40,–,–,–,–
C/C=C1\NC(=O)C(O)(CC(=O)c2ccc(OC)cc2)\C1=C/C (centres unmarked) [PT-2-37],≥ 40,≥ 40,≥ 40,–,–,–,–
COc1ccc(C(=O)CC2(O)C(=O)Nc3cc(Cl)c(Cl)cc32)cc1 (centres unmarked) [PT-2-39],≥ 40,≥ 40,≥ 40,–,–,–,–
COc1ccc(C(=O)CC2(O)C(=O)Nc3c(Cl)cccc32)cc1 (centres unmarked) [PT-2-52],≥ 40,≥ 40,≥ 40,–,–,–,–
COc1ccc(C(=O)CC2(O)C(=O)Nc3ccc(Cl)cc32)cc1 (centres unmarked) [PT-2-56],12.4,≥ 40,≥ 40,–,–,–,–
COc1ccc(CC(=O)CC2(O)C(=O)Nc3c(Cl)ccc(Cl)c32)cc1 (centres unmarked) [PT-2-59],≥ 40,≥ 40,≥ 40,–,–,–,–
COc1ccc(C(=O)CC2(O)C(=O)N(C)c3ccccc32)cc1 (centres unmarked) [PT-2-64],≥ 40,≥ 40,≥ 40,–,–,–,–
COc1ccc(C(=O)CC2(O)C(=O)N(C)c3c(Cl)ccc(Cl)c32)cc1 (centres unmarked) [PT-2-69],2.18,≥ 40,–,2.31,–,–,–
CCCC(=O)CC1(O)C(=O)N(C)c2c(Cl)ccc(Cl)c21 (centres unmarked) [PT-2-71],≥ 40,≥ 40,≥ 40,–,–,–,–
COc1ccc(C(=O)CC2(OC)C(=O)Nc3c(Cl)ccc(Cl)c32)cc1 (centres unmarked) [PT-2-78],≥ 40,≥ 40,≥ 40,–,–,–,–
COc1ccc(C(=O)CC2(OC)C(=O)N(C)c3c(Cl)ccc(Cl)c32)cc1 (centres unmarked) [PT-2-79],12.1,11.2,17,–,–,–,–
O=C(CC1(O)C(=O)Nc2c(Cl)ccc(Cl)c21)c1ccc(Cl)cc1 (centres unmarked) [YK-4-275],≥ 40,11,23.9,–,–,–,–
O=C(CC1(O)C(=O)N(Cc2ccccc2)c2c(Cl)ccc(Cl)c21)c1ccc(Cl)cc1 (centres unmarked) [YK-4-276],≥ 40,≥ 40,≥ 40,–,–,–,–
O=C(CC1(O)C(=O)Nc2c(Cl)ccc(Cl)c21)c1ccc(I)cc1 (centres unmarked) [YK-4-277],≥ 40,≥ 40,≥ 40,–,–,–,–
O=C(CC1(O)C(=O)Nc2c(Cl)ccc(Cl)c21)c1ccc(F)cc1 (centres unmarked) [YK-4-278],≥ 40,≥ 40,≥ 40,–,–,–,–
Cc1ccc(C(=O)CC2(O)C(=O)Nc3c(Cl)ccc(Cl)c32)cc1 (centres unmarked) [YK-4-280],12.1,≥ 40,30.1,–,–,–,–
O=C(CC1(O)C(=O)Nc2c(Cl)ccc(Cl)c21)c1cccc(Cl)c1 (centres unmarked) [YK-4-281],7.22,≥ 40,29.6,–,–,–,–
O=C(CC1(O)C(=O)Nc2c(Cl)ccc(Cl)c21)c1ccccc1Cl (centres unmarked) [YK-4-282],≥ 40,≥ 40,≥ 40,–,–,–,–
O=C(CC1(O)C(=O)Nc2c(Cl)ccc(Cl)c21)c1ccc(Br)cc1 (centres unmarked) [YK-4-283],8.91,12.7,26,–,–,–,–
Nc1ccc(C(=O)CC2(O)C(=O)Nc3c(Cl)ccc(Cl)c32)cc1 (centres unmarked) [YK-4-284],≥ 40,≥ 40,≥ 40,–,–,–,–
O=C(CC1(O)C(=O)Nc2c(Cl)ccc(Cl)c21)c1ccccc1 (centres unmarked) [YK-4-285],≥ 40,≥ 40,≥ 40,–,–,–,–
